Among the test systems are SK-MEL-5 melanoma; A498 renal; MDA-N; UACC-257 melanoma; BT-549 breast; MDA-MB-435; SK-MEL-2 melanoma; DU-145 prostate; CAKI-1 renal; MALME-3M melanoma.
Assay in all cases: growth of human tumour cells (NCI), 48 h

Several values for one entry are separate records, joined by “and”; a condition that tells them apart may be missing. Identical values can stand only once.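 Cells were grown in 96-well plates and exposed to each compound for 48 hours at five concentrations; endpoints were interpolated linearly between bracketing concentrations, or set to the highest concentration if not reached. TGI marks complete inhibition of growth.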 Some results are limits rather than exact numbers.

For `CSC(=N/N=C(\C)c1ccc(S(=O)(=O)N(C)c2ccccc2)cc1)SC`, the TGI with SK-MEL-5 melanoma, in the assay with A498 renal, in the assay on MDA-N, in the assay with UACC-257 melanoma, in the assay on BT-549 breast and in the assay on MDA-MB-435 was above 100 µM each time. The TGI in the assay on SK-MEL-2 melanoma, in the assay on DU-145 prostate, in the assay with CAKI-1 renal and with MALME-3M melanoma was above 100 µM in each case.
With `Cc1cc(=O)oc2c(CN(CCCl)CCCl)c(O)ccc12`, the TGI with SK-MEL-5 melanoma was above 100 µM; in the assay with A498 renal it was above 100 µM; with MDA-N it was above 100 µM; in the assay on UACC-257 melanoma it was above 100 µM; in the assay with BT-549 breast, 78.5 µM; in the assay on MDA-MB-435, above 100 µM. The TGI with SK-MEL-2 melanoma, in the assay with DU-145 prostate, in the assay on CAKI-1 renal and with MALME-3M melanoma was above 100 µM in each case.
As for `COc1cc2c3c4[n+](cc2c(OC)c1OC)CCC4CCC3` (stereo not given), the TGI with SK-MEL-5 melanoma is above 53.3 µM; with A498 renal it was above 100 µM; in the assay with MDA-N it was above 100 µM; with UACC-257 melanoma, above 100 µM; with BT-549 breast, above 100 µM; with MDA-MB-435, above 100 µM. For the same compound, the TGI was above 100 µM in the assay with SK-MEL-2 melanoma, above 100 µM in the assay on DU-145 prostate, above 100 µM in the assay with CAKI-1 renal and above 65.8 µM in the assay with MALME-3M melanoma.
In the case of `CCOC(=O)C1=C(C)N(c2ccc(Cl)cc2)C2(O)C=CC(=O)C3C(=O)N(c4ccccc4)C(=O)C132` (stereo not given), the TGI was 3.47 µM in the assay with SK-MEL-5 melanoma; 3.22 µM in the assay on A498 renal; 8.92 µM in the assay with MDA-N; 6.76 µM in the assay on UACC-257 melanoma; 5.8 µM with BT-549 breast; 6.83 µM in the assay on MDA-MB-435. Further, the TGI came out at 3.53 µM in the assay with SK-MEL-2 melanoma, 4.65 µM with DU-145 prostate, 4.72 µM in the assay with CAKI-1 renal and 3.57 µM with MALME-3M melanoma.
As for `Cc1cnc2cc(Cl)ccc2c1SCC(=O)O`, the TGI with SK-MEL-5 melanoma, with A498 renal, with MDA-N, in the assay with UACC-257 melanoma, in the assay on BT-549 breast and in the assay with MDA-MB-435 was above 100 µM each time. Besides, the TGI in the assay on SK-MEL-2 melanoma, in the assay with DU-145 prostate, in the assay with CAKI-1 renal and with MALME-3M melanoma was above 100 µM in each case.
Take `Cc1cc(S(=O)(=O)Nc2n[nH]c(N)n2)c(S)cc1Cl`: the TGI in the assay on SK-MEL-5 melanoma, in the assay with A498 renal, in the assay with MDA-N, in the assay on UACC-257 melanoma, with BT-549 breast and in the assay on MDA-MB-435 was above 10 µM throughout. Besides, the TGI in the assay on SK-MEL-2 melanoma, in the assay with DU-145 prostate, with CAKI-1 renal and in the assay on MALME-3M melanoma was above 10 µM in each case.
Regarding `Cc1nc2ccccc2nc1N1CCCC1`, the TGI in the assay with SK-MEL-5 melanoma, in the assay on A498 renal, in the assay with MDA-N, with UACC-257 melanoma, in the assay on BT-549 breast and with MDA-MB-435 was above 100 µM each time. The TGI in the assay with SK-MEL-2 melanoma, in the assay on DU-145 prostate, with CAKI-1 renal and in the assay with MALME-3M melanoma was above 100 µM throughout.
As for `CC(=O)N1C(=O)/C(=C\C(=O)c2ccc(Cl)cc2)c2ccccc21`, the TGI was 39.8 µM in the assay with SK-MEL-5 melanoma; 69.3 µM in the assay with A498 renal; 30.9 µM in the assay on MDA-N; 30.7 µM in the assay with UACC-257 melanoma; 18.4 µM in the assay with BT-549 breast; 36.5 µM in the assay on MDA-MB-435. Moreover, the TGI in the assay on SK-MEL-2 melanoma stood at 38.9 µM; with DU-145 prostate, 33.7 µM; in the assay on CAKI-1 renal it was 27.6 µM; with MALME-3M melanoma it was 32.6 µM.
Take `c1ccc2c(c1)[C@@H]1O[C@@H]1[C@@]13O[C@@]21[C@H]1O[C@H]1c1ccccc13`: the TGI was 26.7 µM with SK-MEL-5 melanoma; 30.7 µM in the assay on A498 renal; 32.6 µM with MDA-N; 37.2 µM in the assay on UACC-257 melanoma; 30.3 µM in the assay with BT-549 breast; 28.7 µM in the assay with MDA-MB-435. Moreover, the TGI in the assay on SK-MEL-2 melanoma was 37.5 µM; in the assay with DU-145 prostate, 29.2 µM; with CAKI-1 renal, 23.2 µM; in the assay on MALME-3M melanoma, 26.3 µM.
For the compound `CCCCCC(=O)OCC1(CO)C/C(=C/CC(C(C)C)C(C)C)C(=O)O1` (stereo not given), the TGI in the assay on SK-MEL-5 melanoma, in the assay on A498 renal, in the assay with MDA-N, with UACC-257 melanoma, in the assay on BT-549 breast and in the assay with MDA-MB-435 was above 75 µM throughout. For the same compound, the TGI is above 75 µM in the assay on SK-MEL-2 melanoma, above 75 µM in the assay on DU-145 prostate, 66.8 µM with CAKI-1 renal and 65.6 µM in the assay with MALME-3M melanoma.
Turning to `CC(=O)OC1COC(n2c(N)c(C#N)c(-c3ccccc3)c(C#N)c2=S)C(OC(C)=O)C1OC(C)=O` (stereo not given), the TGI in the assay with SK-MEL-5 melanoma was > 100 µM and 95.4 µM; in the assay with A498 renal, 66 µM and 79.3 µM; with MDA-N, 88.2 µM and 88.3 µM; in the assay on UACC-257 melanoma it was above 100 µM; in the assay with BT-549 breast it was 71.8 µM and 62.9 µM; with MDA-MB-435, 93.6 µM and 61.2 µM. Besides, the TGI with SK-MEL-2 melanoma was > 100 µM and 68.4 µM; in the assay with DU-145 prostate, above 100 µM; in the assay on CAKI-1 renal it was above 100 µM; in the assay on MALME-3M melanoma, above 100 µM.
As for `CCOC(=O)/C=C/C(Br)=C(Br)/C=C/C(=O)OCC`, the TGI was determined as 27.7 µM in the assay on SK-MEL-5 melanoma; 74.3 µM with A498 renal; 27.3 µM in the assay with MDA-N; 43.5 µM in the assay on UACC-257 melanoma; 12.4 µM with BT-549 breast; 18.1 µM in the assay on MDA-MB-435. Moreover, the TGI in the assay with SK-MEL-2 melanoma was determined as 49.3 µM; in the assay on DU-145 prostate, 29.1 µM; with CAKI-1 renal, 13.9 µM; in the assay on MALME-3M melanoma it was 17.5 µM.
For `COc1ccc(C2=C(N)c3cc(OC)ccc3C2=O)cc1`, the TGI in the assay on SK-MEL-5 melanoma, in the assay with A498 renal, with MDA-N, in the assay on UACC-257 melanoma, with BT-549 breast and in the assay on MDA-MB-435 was above 100 µM each time. In addition, the TGI in the assay with SK-MEL-2 melanoma, with DU-145 prostate, in the assay on CAKI-1 renal and in the assay on MALME-3M melanoma was above 100 µM throughout.

For the origin of these results see PubChem BioAssay (NCI).
